# According to patent US9296741B2, “Bromodomain inhibitors” (priority 2012, dated 2016):
# Read-outs that look alike come from different tables or passages of the source.
# Key:
# [1] = tested on: breast cancer cell line MX-1; test: MX-1 cell line proliferation assay; type: cell-based, human; details: MX-1 cells, 3-day proliferation, Cell Titer Glo, read-out: Cellular proliferation: EC50
# [2] = Rat liver microsome stability assay; type: in vitro ADME; details: for half-life at 0.5 μM: rat liver microsomes (male Sprague-Dawley), 0.5 μM test compound, 0.25 mg/mL microsomal protein, pH 7.4, 37° C., read-out: Stability in rat liver microsomes (t1/2 in minutes)
# [3] = target: human BRD4 first bromodomain (BDI_K57-E168) (Homo sapiens (Human), UniProt O60885); test: TR-FRET bromodomain binding assay, BRD4 first bromodomain
# [4] = Mouse liver microsome stability assay; type: in vitro ADME; details: microsomes, pH 7.4; for half-life at 0.5 μM: male, CD1, mouse
# [5] = target: human BRD4 second bromodomain (BDII_E352-M457) (Homo sapiens (Human), UniProt O60885); test: TR-FRET bromodomain binding assay, BRD4 second bromodomain
# [6] = Human liver microsome stability assay; type: in vitro ADME; details: human, microsomes, pH 7.4; for half-life at 0.5 μM: both sexes
SMILES,"EC50 ([1]; Homo sapiens, MX1, 72 h)",half-life at 0.5 μM [2],Ki [3],half-life at 0.5 μM [4],Ki [5],half-life at 0.5 μM [6],EC50 [1],"Stability in rat liver microsomes (t1/2 in minutes) ([2]; rat, microsomes, pH 7.4)",Stability in mouse liver microsomes (t1/2 in minutes) ([4]; mouse),Stability in human liver microsomes (t1/2 in minutes) [6]
"Cn1cc(-c2cc(C(=O)NCC(F)F)ccc2Oc2ccccc2)c2cc[nH]c2c1=O [Example 16, N-(2,2-difluoroethyl)-3-(6-methyl-7-oxo-6,7-dihydro-1H-pyrrolo[2,3-c]pyridin-4-yl)-4-phenoxybenzamide]",94.6 nM,4 min,4.3 nM,22 min,5.3 nM,> 120 min,,,,
"CCS(=O)(=O)c1ccc(OCC2CC2(F)F)c(-c2cn(C)c(=O)c3[nH]c(C(=O)NCC(F)(F)F)cc23)c1 (stereo not drawn) [Example 327, 4-{2-[(2,2-difluorocyclopropyl)methoxy]-5-(ethylsulfonyl)phenyl}-6-methyl-7-oxo-N-(2,2,2-trifluoroethyl)-6,7-dihydro-1H-pyrrolo[2,3-c]pyridine-2-carboxamide]",35.4 nM,> 120 min,8.5 nM,> 120 min,4.2 nM,> 120 min,,,,
"Cn1cc(-c2cc(C(=O)NC3CCOC3)ccc2Oc2ccc(F)cc2F)c2cc[nH]c2c1=O (stereo not drawn) [Example 51, 4-(2,4-difluorophenoxy)-3-(6-methyl-7-oxo-6,7-dihydro-1H-pyrrolo[2,3-c]pyridin-4-yl)-N-(tetrahydrofuran-3-yl)benzamide]",101 nM,63 min,9.7 nM,> 120 min,16.1 nM,6 min,,,,
"CN(C)C1CCN(S(=O)(=O)c2ccc(OCC3CC3)c(-c3cn(C)c(=O)c4[nH]ccc34)c2)C1 (stereo not drawn) [Example 310, 4-[2-(cyclopropylmethoxy)-5-{[3-(dimethylamino)pyrrolidin-1-yl]sulfonyl}phenyl]-6-methyl-1,6-dihydro-7H-pyrrolo[2,3-c]pyridin-7-one]",103 nM,5 min,40.9 nM,9 min,71.1 nM,8 min,,,,
"Cn1cc(-c2cc(S(=O)(=O)N3CCOCC3)ccc2Oc2ccc(F)cc2F)c2cc[nH]c2c1=O [Example 293, 4-[2-(2,4-difluorophenoxy)-5-(morpholin-4-ylsulfonyl)phenyl]-6-methyl-1,6-dihydro-7H-pyrrolo[2,3-c]pyridin-7-one]",381 nM,9 min,180 nM,3 min,19.3 nM,4 min,,,,
"CCS(=O)(=O)Nc1ccc(OCC2CC2)c(-c2cn(C)c(=O)c3[nH]ccc23)c1C [Example 251, N-[4-(cyclopropylmethoxy)-2-methyl-3-(6-methyl-7-oxo-6,7-dihydro-1H-pyrrolo[2,3-c]pyridin-4-yl)phenyl]ethanesulfonamide]",573 nM,23 min,63.1 nM,44 min,171 nM,118 min,,,,
"CCOC(=O)N1CCC(Oc2ccc(S(=O)(=O)CC)cc2-c2cn(C)c(=O)c3[nH]ccc23)CC1 [Example 301, ethyl 4-[4-(ethylsulfonyl)-2-(6-methyl-7-oxo-6,7-dihydro-1H-pyrrolo[2,3-c]pyridin-4-yl)phenoxy]piperidine-1-carboxylate]",42.1 nM,82 min,17.9 nM,13 min,15.5 nM,20 min,,,,
"Cn1cc(-c2cc(NS(=O)(=O)CCF)ccc2OC2CCOC2)c2cc[nH]c2c1=O (stereo not drawn) [Example 91, 2-fluoro-N-[3-(6-methyl-7-oxo-6,7-dihydro-1H-pyrrolo[2,3-c]pyridin-4-yl)-4-(tetrahydrofuran-3-yloxy)phenyl]ethanesulfonamide]",240 nM,7 min,12.2 nM,7 min,87.4 nM,17 min,,,,
"Cn1cc(-c2cc(C3=CCN(C(=O)OC(C)(C)C)CC3)ccc2OCC2CC2)c2cc[nH]c2c1=O [Example 325, tert-butyl 4-[4-(cyclopropylmethoxy)-3-(6-methyl-7-oxo-6,7-dihydro-1H-pyrrolo[2,3-c]pyridin-4-yl)phenyl]-3,6-dihydropyridine-1(2H)-carboxylate]",703 nM,10 min,155 nM,8 min,199 nM,21 min,,,,
"Cn1cc(-c2cc(S(C)(=O)=O)ccc2OCCN2CCOCC2)c2cc[nH]c2c1=O [Example 227, 6-methyl-4-{5-(methylsulfonyl)-2-[2-(morpholin-4-yl)ethoxy]phenyl}-1,6-dihydro-7H-pyrrolo[2,3-c]pyridin-7-one]",658 nM,70 min,73.9 nM,> 120 min,211 nM,50 min,,,,
"CCS(=O)(=O)Nc1ccc(Oc2ccc(F)cc2F)c(-c2cn(C)c(=O)c3[nH]cc(CN4CCN(C)CC4)c23)c1 [Example 351, N-[4-(2,4-difluorophenoxy)-3-{6-methyl-3-[(4-methylpiperazin-1-yl)methyl]-7-oxo-6,7-dihydro-1H-pyrrolo[2,3-c]pyridin-4-yl}phenyl]ethanesulfonamide]",1100 nM,66 min,223 nM,30 min,153 nM,76 min,,,,
"Cn1cc(-c2cc(NS(=O)(=O)CCF)ccc2Oc2c(F)cc(F)cc2F)c2cc[nH]c2c1=O [Example 114, 2-fluoro-N-[3-(6-methyl-7-oxo-6,7-dihydro-1H-pyrrolo[2,3-c]pyridin-4-yl)-4-(2,4,6-trifluorophenoxy)phenyl]ethanesulfonamide]",> 3000 nM,5 min,136 nM,8 min,121 nM,13 min,,,,
"CCNC(=O)c1cc2c(-c3cc(S(C)(=O)=O)ccc3Oc3ccc(F)cc3F)cn(C)c(=O)c2[nH]1 [Example 253, 4-[2-(2,4-difluorophenoxy)-5-(methylsulfonyl)phenyl]-N-ethyl-6-methyl-7-oxo-6,7-dihydro-1 H-pyrrolo[2,3-c]pyridine-2-carboxamide]",145 nM,110 min,20.4 nM,90 min,1.2 nM,72 min,,,,

# Now those with a lower Ki [3], led by results:
"EC50 ([1]; Homo sapiens, MX1, 72 h)",half-life at 0.5 μM [2],Ki [3],half-life at 0.5 μM [4],Ki [5],half-life at 0.5 μM [6],EC50 [1],"Stability in rat liver microsomes (t1/2 in minutes) ([2]; rat, microsomes, pH 7.4)",Stability in mouse liver microsomes (t1/2 in minutes) ([4]; mouse),Stability in human liver microsomes (t1/2 in minutes) [6],SMILES
13.8 nM,6 min,0.88 nM,5 min,2 nM,13 min,,,,,"Cn1cc(-c2cc(NS(C)(=O)=O)ccc2OC2CCCCC2)c2cc[nH]c2c1=O [Example 57, N-[4-(cyclohexyloxy)-3-(6-methyl-7-oxo-6,7-dihydro-1H-pyrrolo[2,3-c]pyridin-4-yl)phenyl]methanesulfonamide]"
16 nM,13 min,0.63 nM,33 min,1.1 nM,24 min,,,,,"Cn1cc(-c2cc(S(N)(=O)=O)cnc2NC2CCCCC2)c2cc[nH]c2c1=O [Example 96, 6-(cyclohexylamino)-5-(6-methyl-7-oxo-6,7-dihydro-1H-pyrrolo[2,3-c]pyridin-4-yl)pyridine-3-sulfonamide]"
26.4 nM,12 min,2.7 nM,16 min,5.6 nM,> 120 min,,,,,"CCS(=O)(=O)Nc1ccc(OCC2CC2)c(-c2cn(C)c(=O)c3[nH]ccc23)c1 [Example 145, N-[4-(cyclopropylmethoxy)-3-(6-methyl-7-oxo-6,7-dihydro-1H-pyrrolo[2,3-c]pyridin-4-yl)phenyl]ethanesulfonamide]"
65.2 nM,3 min,2.2 nM,10.7 min,1 nM,32 min,,,,,"CN(C)S(=O)(=O)Nc1ccc(Oc2ccccc2)c(-c2cn(C)c(=O)c3[nH]ccc23)c1 [Example 22, N,N-dimethyl-N′-[3-(6-methyl-7-oxo-6,7-dihydro-1H-pyrrolo[2,3-c]pyridin-4-yl)-4-phenoxyphenyl]sulfuric diamide]"
21.3 nM,5 min,2.8 nM,4 min,1.2 nM,5 min,,,,,"Cn1cc(-c2cc(S(C)(=O)=O)ccc2OC2CCCCCC2)c2cc[nH]c2c1=O [Example 220, 4-[2-(cycloheptyloxy)-5-(methylsulfonyl)phenyl]-6-methyl-1,6-dihydro-7H-pyrrolo[2,3-c]pyridin-7-one]"
77.4 nM,76 min,0.8 nM,67 min,31.6 nM,100 min,,,,,"CCS(=O)(=O)Nc1ccc(Oc2ccc(F)cc2F)c(-c2cn(C)c(=O)c3[nH]c(CN4CCN(C)CC4)cc23)c1 [Example 339, N-[4-(2,4-difluorophenoxy)-3-{6-methyl-2-[(4-methylpiperazin-1-yl)methyl]-7-oxo-6,7-dihydro-1H-pyrrolo[2,3-c]pyridin-4-yl}phenyl]ethanesulfonamide]"
,,1.4 nM,,2.1 nM,,11.9 nM,48 min,63 min,65 min,"CCS(=O)(=O)c1ccc(O[C@H]2CC[C@@](C)(O)CC2)c(-c2cn(C)c(=O)c3[nH]ccc23)c1 [Example 211, 4-{5-(ethylsulfonyl)-2-[(cis-4-hydroxy-4-methylcyclohexyl)oxy]phenyl}-6-methyl-1,6-dihydro-7H-pyrrolo[2,3-c]pyridin-7-one]"
